Data: PMC5662717, “Angiotensin II-derived constrained peptides with antiplasmodial activity and suppressed vasoconstriction” (Scientific Reports, 2017)
Where a SMILES comes first, the peptide text is derived from it. Bridges are numbered along the chain shown (N, C = ends). Where no end group is shown, it is not given here.

Legend:
[1] = tested on: human red blood cells; type: cell-based; details: for Hemolysis of red blood cells: red cells of human, 24 h, 1e-8 mol L^−1
Method: Assessing toxicity is a key requirement for translating novel compounds into the clinic. Therefore, we evaluated the hemolytic activity of Ang II peptide derivatives 1 and 2 towards erythrocyte human cells. Erythrocytes were seeded in 96-well plates in the absence (negative control) or presence of 10^−8 mol L^−1 of the analogs, as described in the Methods Section.
Figure 3 Hemolytic assay of human red blood cells. Red blood cells were treated with distilled water which causes lysis of red blood cells; uninfected erythrocytes were kept in the same conditions used in the invasion assay with a control and each peptide tested (10^−8 mol L^−1), at 37 °C for 24 h. After incubation, the supernatant was collected, clarified at 900 g/8 min and the hemoglobin content was detected in a spectrophotometer at […]. **** denotes statistical significance of group compared with distilled water value p < 0.05.
The hemolytic effect of analogs 1 and 2 was determined in uninfected erythrocytes. Cells were maintained in the same culture conditions in the presence of 10^−8 mol L^−1 of peptides for 24 h. Erythrocytes were centrifuged at 900 g for 8 min. The free hemoglobin in the supernatant was monitored by spectrophotometer at 550 nm. Untreated cells were used as negative control to rule out nonspecific hemolysis. The hemolytic activity was expressed as a percentage of the control. This positive control (100% hemolysis) was prepared by treating the erythrocytes with distilled water.

[2] = tested on: stomach fundus; set-up: species or system C57BL/6 J mice; details: pH 7.4
Method: The bioassay experiment was carried out in duplicate and generated equivalent results. Experiments were carried out using C57BL/6 J mice from the Centro de Desenvolvimento de Modelos Experimentais da Universidade Federal de São Paulo (CEDEME-UNIFESP).
Stomach fundus was isolated from each mouse, divided into two strips along the longitudinal muscle, and mounted into 5 mL organ baths containing modified Krebs-Ringer solution [144 mmol L^–1 NaCl, 5 mmol L^–1 KCl, 1.1 mmol L^–1 MgSO4, 25 mmol L^–1 NaHCO3, 1.1 mmol L^–1 NaH2PO4, 1.25 mmol L^–1 CaCl2, and 5.5 mmol L^–1 glucose at 37 °C (pH 7.4)] and were continuously carboxygenated (95% O2/5% CO2)[29]. Contractile responses to the stimulations with Ang II and analogs 1 and 2 (10^–8 mol L^–1) were measured with a TRI201 tension transducer (PanLab) through an amplifier (Powerlab 4/30). Data were collected through Labchart Pro V7 software. The resting tension was maintained at 0.5 g and the tissues were left to equilibrate for 90 min. The bath solution was frequently changed. The maximal effect was obtained by comparing contractile responses induced by carbachol (10^–8 mol L^–1).

[3] = tested on: Plasmodium gallinaceum sporozoites; experiment: Effect of peptides on salivary gland-derived sporozoites (membrane permeability, propidium iodide fluorescence microscopy); type: cell-based; details: digitonin 40 μmol L–1 in PBS
Method: The effect of the peptides on sporozoites was determined in vitro by fluorescence microscopy. Briefly, the parasites were incubated for one hour in the presence of each peptide and the fluorophore propidium iodide, which stains dead and dying cells. The results are reported as the percent of fluorescent (i.e., inactivated) sporozoites. The analyses were carried out in triplicate, using three different mosquito batches (n = 9).
Aedes aegypti RED strain was used in experiments due to their hypersensitivity to P. gallinaceum parasite. Mosquitoes were reared using standard laboratory procedures. An aliquot of frozen chicken blood infected with the P. gallinaceum strain 8 A was obtained from A Krettli (René Rachou Institute of Research, FIOCRUZ, MG, Brazil). […]
Nine thousand P. gallinaceum mature sporozoites were pulled from the salivary glands of A. aegypti and incubated in 50 μL of PBS solution, with 40 μmol L^–1 digitonin (positive control), 60 μmol L^–1 peptides or negative control (PBS solution), at 37 °C for one hour. Cell membrane integrity was then observed using a Carl Zeiss inverted fluorescence microscope (model Observer Axio Vision A.1) coupled to an image capture Zeiss AxioCam HR digital camera (1,300 × 1,030 pixels resolution and 8-bit quantization) after addition of 1 μL of the propidium iodide aqueous solution (200 μmol L^–1) in 5 μL of total solution volume. […]

[4] = tested on: Plasmodium gallinaceum sporozoites; details: cited from earlier work; for Antiplasmodial activity against P. gallinaceum sporozoites, linear peptides: ref 12 (Silva et al.)
From the text: Silva et al.[12], tested several linear Ang II derivative peptides in vitro using both the P. gallinaceum sporozoite and the P. falciparum blood stage models. Two short peptides presented high antiplasmodial activity: YHPF and VIPF presented 89% and 94% activity against P. gallinaceum, respectively, and ~50% activity against erythrocyte invasion by P. falciparum. […] Analog 4 was designed via the removal of these two residues. Silva et al., studied linear peptides and observed that peptide DRVYHIPF had potent biological activity (94% against P. gallinaceum sporozoites). The sequence of peptide 1 is similar to that of Ang II, whereas peptide 2 presents a sequence that resembles Ang II with modifications in His and Ile residues (DRVYHIPF). Peptide 4, on the other hand, lacks Ile and His amino acid residues within its backbone. […] Peptide sequence CDRVCYIHPF[7] presented 76% (±3) antiplasmodial activity vs sporozoites of P. gallinaceum. Silva et al., studied different linear Ang II derivative peptides[12] and observed that when His and Ile residues are inverted, the antiplasmodial activity increased cf. peptides with the native primary sequence. To verify this observation, here we inverted the position of Ile and His residues in peptide 3. The resulting peptide presented increased antiplasmodial ...

[5] = tested on: Plasmodium falciparum; experiment: Erythrocytic invasion assay (new ring formation) and IC50 determination; type: cell-based; details: 10^−8 mol L^−1 peptide, 24 h, W2 strain, 2–3% parasitemia, 5% hematocrit; reduction versus untreated control, normalized
Method: The effect of peptides in the P. falciparum erythrocytic cycle was assayed in vitro against a synchronized culture in the schizont form of P. falciparum, maintaining 5% hematocrit and 2% parasitemia. Twenty-four hours after treatment, all peptides reduced new ring formation within erythrocytes at 10^−8 mol L^−1, which was described by Saraiva et al. as the ideal concentration for these inhibition assays. The tests were carried out in duplicate and a total of ten experiments were performed (n = 10). Data were normalized due to differences between controls from each assay. It was observed that three analogs reduced the number of rings formed in the blood stage, but only analogs 1 and 2 presented inhibition >40%, when compared to the untreated controls (Fig. 2B).
The erythrocytic cycle of Plasmodium falciparum was maintained in vitro by culturing W2 strains in 1640 medium, supplemented with A-type human blood and serum, as described by Saraiva et al.[15] […]
To synchronize the parasite cultures into the ring stage, we used a sorbitol solution (5%) according to Lambros and Vanderberg[28]. […] Invasion was evaluated by the appearance of new ring forms. The invasion percentage was determined by optical microscopy (1000x magnification), which represents the total number of cells infected by rings in 100 erythrocytes in at least ten random microscopic fields. […]

[6] = tested on: Plasmodium; details: cited from earlier work; for Biological activity (antiplasmodial): ref 4 (Maciel et al.); for Antiplasmodial activity relative to Ang II (in words): lactam bridge analogs, ref 6 (Torres et al.)
From the text: Three of these analogs (i.e., EDRKVYI ...

[7] = tested on: Plasmodium falciparum; details: ref 12 (Silva et al.); cited from earlier work
From the text: Table 1 Design of angiotensin II-derived synthetic peptides. Purity of peptides determined by LC/MS is shown, along with their respective antiplasmodial activity and design rationale. | column: Antiplasmodial activity vs P. falciparum (new ring formation%) || Silva et al.[12], tested several linear Ang II derivative peptides in vitro using both the P. gallinaceum sporozoite and the P. falciparum blood stage models. Two short peptides presented high antiplasmodial activity: YHPF and VIPF presented 89% and 94% activity against P. gallinaceum, respectively, and ~50% activity against erythrocyte invasion by P. falciparum. […] The authors observed that Ang II reduced by 47% reinfection caused by ring forms. Silva and colleagues tested linear Ang II derivatives using the same model and observed that two short peptides were capable of reducing parasite reinfection >50%[12]. In this work, we tested designer peptides using the P. falciparum erythrocytic cycle and observed that two peptides (1 and 2) were able to reduce ... || (+ 1 further places)

## CC[C@H](C)[C@@H]1NC(=O)[C@H](Cc2ccc(O)cc2)NC(=O)[C@H](C(C)C)NC(=O)[C@H](CCCNC(=N)N)NC(=O)[C@H](CC(=O)O)NC(=O)[C@@H](N)CSSC[C@@H](C(=O)O)NC(=O)[C@H](Cc2ccccc2)NC(=O)[C@@H]2CCCN2C(=O)[C@H](Cc2c[nH]cn2)NC1=O [Peptide 1] (H-CDRVYIHPFC-OH; disulfide 1-10)
[1]
  Hemolytic effect (in words): did not present hemolytic effects
  Hemolysis of red blood cells: < 6%
[2]
  Contractile response / vasoconstriction (in words): complete suppression of vasoconstriction

## CC[C@H](C)[C@@H]1NC(=O)[C@H](Cc2c[nH]cn2)NC(=O)[C@H](Cc2ccc(O)cc2)NC(=O)[C@H](C(C)C)NC(=O)[C@H](CCCNC(=N)N)NC(=O)[C@H](CC(=O)O)NC(=O)[C@@H](N)CSSC[C@@H](C(=O)O)NC(=O)[C@H](Cc2ccccc2)NC(=O)[C@@H]2CCCN2C1=O [Peptide 2] (H-CDRVYHIPFC-OH; disulfide 1-10)
[1]
  Hemolytic effect (in words): did not present hemolytic effects
  Hemolysis of red blood cells: < 6%
[2]
  Contractile response / vasoconstriction (in words): complete suppression of vasoconstriction

## C[C@@H]1CC[C@@]2(OC1)O[C@H]1[C@@H](O)[C@H]3[C@@H]4CC[C@H]5C[C@@H](O[C@@H]6O[C@H](CO)[C@H](O[C@@H]7O[C@H](CO)[C@@H](O)[C@H](O[C@@H]8OC[C@@H](O)[C@H](O)[C@H]8O)[C@H]7O[C@@H]7O[C@H](CO)[C@H](O)[C@H](O[C@@H]8O[C@H](CO)[C@@H](O)[C@H](O)[C@H]8O)[C@H]7O)[C@H](O)[C@H]6O)[C@H](O)C[C@]5(C)[C@H]4CC[C@]3(C)[C@H]1[C@@H]2C [digitonin]
[3]
  Lysis of parasite membranes by the positive control: 100%

## CDRVCYIHPF (disulfide 1-5 (inferred)) [S-S restricted Ang II analog of Torres et al]
[4]; ref 7 (Torres et al.)
  Antiplasmodial activity vs sporozoites of P. gallinaceum, S-S restricted analog: 76%

## CVIPFC (disulfide 1-6 (inferred)) [Peptide 8]
[5]
  Antiplasmodial activity vs P. falciparum (new ring formation%): 3.5%

## DDRKVYIHPF [VC-4, linear Ang II analog of Maciel et al]
[6]
  Biological activity (antiplasmodial): 64%

## DRDVKYIHPF (also: sidechain bridge or staple (positions not given here)) [VC-5, restricted (lactam bridge) Ang II analog of Maciel et al]
[6]
  Biological activity (antiplasmodial): 78%

## DRVYHIPF [linear Ang II derivative of Silva et al., linear counterpart of peptide 2]
[4]
  Antiplasmodial activity against P. gallinaceum sporozoites, linear peptides: 94%

## EDRKVYIHPF (also: sidechain bridge or staple (positions not given here)) [lactam bridge Ang II analog of Torres et al]
[6]
  Antiplasmodial activity relative to Ang II (in words): maintained the antiplasmodial activity of Ang II

## EDRVOYIHPF (sidechain bridge or staple) [lactam bridge Ang II analog of Torres et al]
[6]
  Antiplasmodial activity relative to Ang II (in words): maintained the antiplasmodial activity of Ang II

## VIPF [short linear Ang II derivative of Silva et al]
[4]
  Antiplasmodial activity against P. gallinaceum sporozoites, linear peptides: 94%
[7]
  Activity against erythrocyte invasion by P. falciparum, linear peptides: ~ 50%

## YHPF [short linear Ang II derivative of Silva et al]
[4]
  Antiplasmodial activity against P. gallinaceum sporozoites, linear peptides: 89%
[7]
  Activity against erythrocyte invasion by P. falciparum, linear peptides: ~ 50%
